Values after ≈ are worked out from the molar mass of the structure shown.
How the values were obtained:
Assay type in all cases: functional
Campylobacter jejuni [1] = test: Antimicrobial activity against Campylobacter jejuni NCTC 11168 by agar dilution method
Campylobacter jejuni [2] = test: Antimicrobial activity against Campylobacter jejuni DC1 by agar dilution method
Campylobacter jejuni [3] = test: Antimicrobial activity against Campylobacter jejuni DC2 harboring protein L4 G74D mutant by agar dilution method
Campylobacter jejuni [4] = test: Antimicrobial activity against Campylobacter jejuni DC3 harboring 23S rRNA A2074G mutant by agar dilution method
Campylobacter jejuni [5] = test: Antimicrobial activity against Campylobacter jejuni DC4 by agar dilution method
Campylobacter jejuni [6] = test: Antimicrobial activity against Campylobacter jejuni DC5 harboring protein L4 G74D mutant by agar dilution method
Campylobacter jejuni [7] = test: Antimicrobial activity against Campylobacter jejuni DC7 harboring protein L4 G74D mutant by agar dilution method
Campylobacter jejuni [8] = test: Antimicrobial activity against Campylobacter jejuni DC8 harboring protein L4 G74D mutant by agar dilution method
Campylobacter jejuni [9] = test: Antimicrobial activity against Campylobacter jejuni DC9 harboring 23S rRNA A2074G mutant by agar dilution method
Campylobacter jejuni [10] = test: Antimicrobial activity against Campylobacter jejuni DC10 harboring protein L4 G57D mutant by agar dilution method
Campylobacter jejuni [11] = test: Antimicrobial activity against Campylobacter jejuni DC11 by agar dilution method
Campylobacter jejuni [12] = test: Antimicrobial activity against Campylobacter jejuni DC12 harboring protein L4 G74D mutant by agar dilution method
Campylobacter jejuni [13] = test: Antimicrobial activity against Campylobacter jejuni DC13 harboring protein L4 G74D mutant by agar dilution method
Campylobacter jejuni [14] = test: Antimicrobial activity against Campylobacter jejuni DC15 harboring protein L4 G74D mutant by agar dilution method
Campylobacter jejuni [15] = test: Antimicrobial activity against Campylobacter jejuni DC16 harboring protein L4 G74D mutant by agar dilution method
Campylobacter jejuni [16] = test: Antimicrobial activity against Campylobacter jejuni DC18 harboring protein L4 G74D mutant by agar dilution method
Campylobacter jejuni [17] = test: Antimicrobial activity against Campylobacter jejuni DC20 harboring protein L4 G74D mutant by agar dilution method
Campylobacter jejuni [18] = test: Antimicrobial activity against Campylobacter jejuni DC21 harboring protein L4 G74D mutant by agar dilution method
Campylobacter jejuni [19] = test: Antimicrobial activity against Campylobacter jejuni DC22 harboring protein L4 G74D mutant by agar dilution method
Campylobacter jejuni [20] = test: Antimicrobial activity against Campylobacter jejuni DC23 harboring protein L4 G74D mutant by agar dilution method
Campylobacter jejuni [21] = test: Antimicrobial activity against Campylobacter jejuni DC24 harboring protein L4 G74D mutant by agar dilution method
Campylobacter jejuni [22] = test: Antimicrobial activity against Campylobacter jejuni DC25 harboring protein L4 G74D mutant by agar dilution method
Campylobacter jejuni [23] = test: Antimicrobial activity against Campylobacter jejuni DC26 harboring protein L4 G74D mutant by agar dilution method
Campylobacter jejuni [24] = test: Antimicrobial activity against Campylobacter jejuni DC27 harboring protein L4 G74D mutant by agar dilution method
Campylobacter jejuni [25] = test: Antimicrobial activity against Campylobacter jejuni DC28 harboring protein L4 G74D mutant by agar dilution method
Campylobacter jejuni [26] = test: Antimicrobial activity against Campylobacter jejuni DC29 by agar dilution method
Campylobacter jejuni [27] = test: Antimicrobial activity against Campylobacter jejuni DC30 by agar dilution method
Campylobacter jejuni [28] = test: Antimicrobial activity against Campylobacter jejuni DC31 harboring 23S rRNA A2074G mutant by agar dilution method
Campylobacter jejuni [29] = test: Antimicrobial activity against Campylobacter jejuni DC32 harboring 23S rRNA A2074G mutant by agar dilution method
Campylobacter jejuni [30] = test: Antimicrobial activity against Campylobacter jejuni DC33 harboring 23S rRNA A2074G mutant by agar dilution method
Campylobacter jejuni [31] = test: Antimicrobial activity against Campylobacter jejuni DC34 harboring protein L4 G74D mutant by agar dilution method
Campylobacter jejuni [32] = test: Antimicrobial activity against Campylobacter jejuni DC35 harboring protein L4 G74D mutant by agar dilution method
Campylobacter jejuni [33] = test: Antimicrobial activity against Campylobacter jejuni DC36 harboring protein L4 G74D mutant by agar dilution method
Campylobacter jejuni [34] = test: Antimicrobial activity against Campylobacter jejuni DC37 harboring protein L4 G74D mutant by agar dilution method
Campylobacter jejuni [35] = test: Antimicrobial activity against Campylobacter jejuni DC38 harboring protein L4 G74D mutant by agar dilution method
Campylobacter jejuni [36] = test: Antimicrobial activity against Campylobacter jejuni DC39 harboring protein L4 G74D and G57V mutant by agar dilution method
Campylobacter jejuni [37] = test: Antimicrobial activity against Campylobacter jejuni JL276 selected at 4 ug/ml after 3 to 4 days by agar dilution method
Campylobacter jejuni [38] = test: Antimicrobial activity against Campylobacter jejuni JL277 selected at 4 to 16 times MIC after 3 to 4 days by agar dilution method

With `CC[C@H]1OC(=O)[C@H](C)[C@@H](O[C@H]2C[C@@](C)(OC)[C@@H](O)[C@H](C)O2)[C@H](C)[C@@H](O[C@@H]2O[C@H](C)C[C@H](N(C)C)[C@H]2O)[C@](C)(O)C[C@@H](C)C(=O)[C@H](C)[C@@H](O)[C@]1(C)O` [ERYTHROMYCIN] the MIC (Campylobacter jejuni [1]) was 1 µg/mL (≈ 1.36 µM), the MIC (Campylobacter jejuni [2]) was 8 µg/mL (≈ 10.9 µM) and the MIC (Campylobacter jejuni [3]) was 32 µg/mL (≈ 43.6 µM). The MIC (Campylobacter jejuni [4]) was over 512 µg/mL, the MIC (Campylobacter jejuni [5]) was 8 µg/mL (≈ 10.9 µM) and the MIC (Campylobacter jejuni [6]) was 8 µg/mL (≈ 10.9 µM). The MIC (Campylobacter jejuni [7]) was 8 µg/mL (≈ 10.9 µM), the MIC (Campylobacter jejuni [8]) was 32 µg/mL (≈ 43.6 µM) and the MIC (Campylobacter jejuni [9]) was over 512 µg/mL. The MIC (Campylobacter jejuni [10]) was 16 µg/mL (≈ 21.8 µM), the MIC (Campylobacter jejuni [11]) was 64 µg/mL (≈ 87.2 µM) and the MIC (Campylobacter jejuni [12]) was 64 µg/mL (≈ 87.2 µM). It also gave an MIC (Campylobacter jejuni [13]) of 32 µg/mL (≈ 43.6 µM), an MIC (Campylobacter jejuni [14]) of 32 µg/mL (≈ 43.6 µM) and an MIC (Campylobacter jejuni [15]) of 32 µg/mL (≈ 43.6 µM). It also gave an MIC (Campylobacter jejuni [16]) of 16 µg/mL (≈ 21.8 µM), an MIC (Campylobacter jejuni [17]) of 16 µg/mL (≈ 21.8 µM) and an MIC (Campylobacter jejuni [18]) of 32 µg/mL (≈ 43.6 µM). The MIC (Campylobacter jejuni [19]) was 32 µg/mL (≈ 43.6 µM), the MIC (Campylobacter jejuni [20]) was 64 µg/mL (≈ 87.2 µM) and the MIC (Campylobacter jejuni [21]) was 32 µg/mL (≈ 43.6 µM). The MIC (Campylobacter jejuni [22]) was 64 µg/mL (≈ 87.2 µM), the MIC (Campylobacter jejuni [23]) was 64 µg/mL (≈ 87.2 µM) and the MIC (Campylobacter jejuni [24]) was 64 µg/mL (≈ 87.2 µM). It also gave an MIC (Campylobacter jejuni [25]) of 8 µg/mL (≈ 10.9 µM), an MIC (Campylobacter jejuni [26]) of 4 µg/mL (≈ 5.45 µM) and an MIC (Campylobacter jejuni [27]) of 1 µg/mL (≈ 1.36 µM). For the same molecule, the MIC (Campylobacter jejuni [28]) was over 512 µg/mL, the MIC (Campylobacter jejuni [29]) was over 512 µg/mL and the MIC (Campylobacter jejuni [30]) was over 512 µg/mL. The MIC (Campylobacter jejuni [31]) was 128 µg/mL (≈ 174 µM), the MIC (Campylobacter jejuni [32]) was 128 µg/mL (≈ 174 µM) and the MIC (Campylobacter jejuni [33]) was 128 µg/mL (≈ 174 µM). It also gave an MIC (Campylobacter jejuni [34]) of 128 µg/mL (≈ 174 µM), an MIC (Campylobacter jejuni [35]) of 128 µg/mL (≈ 174 µM) and an MIC (Campylobacter jejuni [36]) of 256 µg/mL (≈ 349 µM). For the same molecule, the MIC (Campylobacter jejuni [37]) was 16 µg/mL (≈ 21.8 µM) and the MIC (Campylobacter jejuni [38]) was 8 µg/mL (≈ 10.9 µM).

— ChEMBL document CHEMBL1671637, “Development, stability, and molecular mechanisms of macrolide resistance in Campylobacter jejuni” (2008)
